# Measured values taken from ChEMBL document CHEMBL5291721, “A preclinical secondary pharmacology resource illuminates target-adverse drug reaction associations of marketed drugs” (Nat Commun, 2023).
# What was measured:
# [1] = molecular target: Glutamate receptor ionotropic, NMDA 1 (Rattus norvegicus, UniProt P35439)
# [2] = molecular target: T1, Muscarinic acetylcholine receptor M2 (Homo sapiens, UniProt P08172); format: functional, cell-based
# T1 sequence (P08172 whole entry): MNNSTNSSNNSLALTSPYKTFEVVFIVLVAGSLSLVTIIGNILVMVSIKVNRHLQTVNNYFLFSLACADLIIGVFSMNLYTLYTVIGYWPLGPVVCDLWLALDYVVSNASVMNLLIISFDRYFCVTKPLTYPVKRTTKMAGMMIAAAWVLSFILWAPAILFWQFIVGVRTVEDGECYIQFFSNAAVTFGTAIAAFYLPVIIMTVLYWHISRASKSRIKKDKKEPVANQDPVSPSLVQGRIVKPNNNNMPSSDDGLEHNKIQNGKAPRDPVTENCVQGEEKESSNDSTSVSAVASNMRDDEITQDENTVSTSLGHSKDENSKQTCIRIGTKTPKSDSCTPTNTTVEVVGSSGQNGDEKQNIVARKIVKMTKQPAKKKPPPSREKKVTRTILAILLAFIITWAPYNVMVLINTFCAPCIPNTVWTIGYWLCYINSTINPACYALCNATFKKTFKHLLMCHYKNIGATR
# Melanocortin receptor 3 = Melanocortin receptor 3 (Homo sapiens, UniProt P41968)
# Thromboxane A2 receptor = molecular target: T2, Thromboxane A2 receptor (Homo sapiens, UniProt P21731)
# T2 sequence (P21731 whole entry): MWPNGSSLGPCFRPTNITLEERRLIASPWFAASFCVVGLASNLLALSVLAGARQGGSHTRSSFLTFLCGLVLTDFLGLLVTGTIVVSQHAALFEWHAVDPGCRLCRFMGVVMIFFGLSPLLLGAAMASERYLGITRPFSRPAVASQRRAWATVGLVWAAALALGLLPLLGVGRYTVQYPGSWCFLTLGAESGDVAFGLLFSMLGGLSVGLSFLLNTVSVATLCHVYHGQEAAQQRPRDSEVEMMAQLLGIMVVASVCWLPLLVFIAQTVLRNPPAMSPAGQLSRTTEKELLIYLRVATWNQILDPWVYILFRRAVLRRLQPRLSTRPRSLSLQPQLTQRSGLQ
# [3] = molecular target: T3, Type-1 angiotensin II receptor (Homo sapiens, UniProt P30556)
# T3 sequence (P30556 whole entry): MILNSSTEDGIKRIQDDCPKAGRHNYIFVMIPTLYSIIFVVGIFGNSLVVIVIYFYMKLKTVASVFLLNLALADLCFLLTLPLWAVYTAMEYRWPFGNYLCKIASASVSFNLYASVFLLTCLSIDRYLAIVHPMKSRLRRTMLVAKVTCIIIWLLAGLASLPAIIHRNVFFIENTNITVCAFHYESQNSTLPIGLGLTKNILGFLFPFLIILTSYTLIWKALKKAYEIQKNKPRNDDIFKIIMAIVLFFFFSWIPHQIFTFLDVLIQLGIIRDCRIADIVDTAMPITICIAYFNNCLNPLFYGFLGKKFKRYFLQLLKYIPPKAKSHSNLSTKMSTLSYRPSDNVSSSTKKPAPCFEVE
# D(1A) dopamine receptor = D(1A) dopamine receptor (Homo sapiens, UniProt P21728); format: functional, cell-based
# Endothelin-1 receptor = molecular target: T4, Endothelin-1 receptor (Homo sapiens, UniProt P25101)
# T4 sequence (P25101 whole entry): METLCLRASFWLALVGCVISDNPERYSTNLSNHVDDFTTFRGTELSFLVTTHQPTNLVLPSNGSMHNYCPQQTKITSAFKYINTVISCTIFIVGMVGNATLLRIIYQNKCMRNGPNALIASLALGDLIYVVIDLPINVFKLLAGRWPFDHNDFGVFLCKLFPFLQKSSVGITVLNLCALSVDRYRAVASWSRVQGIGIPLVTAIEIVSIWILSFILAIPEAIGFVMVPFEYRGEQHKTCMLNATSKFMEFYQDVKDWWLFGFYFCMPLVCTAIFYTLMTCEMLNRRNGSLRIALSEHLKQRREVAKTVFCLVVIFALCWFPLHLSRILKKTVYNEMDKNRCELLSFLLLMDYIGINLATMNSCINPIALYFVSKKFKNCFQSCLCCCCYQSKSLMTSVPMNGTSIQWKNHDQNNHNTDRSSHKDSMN
# [4] = molecular target: 5-hydroxytryptamine receptor 2B (Homo sapiens, UniProt P41595); format: functional, cell-based
# [5] = molecular target: T5, Alpha-2A adrenergic receptor (Homo sapiens, UniProt P08913); format: functional, cell-based
# T5 sequence (P08913 whole entry): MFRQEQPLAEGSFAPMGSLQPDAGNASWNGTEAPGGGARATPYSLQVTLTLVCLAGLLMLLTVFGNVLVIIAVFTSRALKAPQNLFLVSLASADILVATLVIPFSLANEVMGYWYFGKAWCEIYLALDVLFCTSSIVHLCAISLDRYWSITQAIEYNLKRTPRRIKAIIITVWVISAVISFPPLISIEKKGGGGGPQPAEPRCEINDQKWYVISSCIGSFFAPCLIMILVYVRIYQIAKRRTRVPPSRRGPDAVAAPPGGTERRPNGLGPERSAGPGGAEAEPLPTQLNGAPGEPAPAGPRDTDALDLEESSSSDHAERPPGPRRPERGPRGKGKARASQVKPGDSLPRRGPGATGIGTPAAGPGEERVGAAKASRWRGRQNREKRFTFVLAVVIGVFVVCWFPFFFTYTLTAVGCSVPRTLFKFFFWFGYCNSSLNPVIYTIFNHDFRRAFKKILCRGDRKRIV
# [6] = molecular target: Muscarinic acetylcholine receptor M3 (Homo sapiens, UniProt P20309)
# [7] = molecular target: Delta-type opioid receptor (Homo sapiens, UniProt P41143)
# [8] = molecular target: T6, 5-hydroxytryptamine receptor 2C (Homo sapiens, UniProt P28335)
# T6 sequence (P28335 whole entry): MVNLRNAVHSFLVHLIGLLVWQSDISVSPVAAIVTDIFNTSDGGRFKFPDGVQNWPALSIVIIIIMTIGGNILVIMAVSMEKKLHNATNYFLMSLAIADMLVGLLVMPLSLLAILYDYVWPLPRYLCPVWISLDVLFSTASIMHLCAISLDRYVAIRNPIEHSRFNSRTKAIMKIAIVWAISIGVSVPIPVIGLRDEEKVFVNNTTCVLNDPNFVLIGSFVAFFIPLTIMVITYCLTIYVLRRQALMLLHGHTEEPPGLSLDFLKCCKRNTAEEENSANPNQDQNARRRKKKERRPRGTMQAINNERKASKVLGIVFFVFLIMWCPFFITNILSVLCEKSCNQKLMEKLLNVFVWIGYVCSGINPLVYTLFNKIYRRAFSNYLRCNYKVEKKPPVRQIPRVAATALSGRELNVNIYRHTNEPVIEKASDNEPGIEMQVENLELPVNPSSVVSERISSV
# Further: assay procedure not described here.
# Chain of Muscarinic acetylcholine receptor M3 (P20309 whole entry): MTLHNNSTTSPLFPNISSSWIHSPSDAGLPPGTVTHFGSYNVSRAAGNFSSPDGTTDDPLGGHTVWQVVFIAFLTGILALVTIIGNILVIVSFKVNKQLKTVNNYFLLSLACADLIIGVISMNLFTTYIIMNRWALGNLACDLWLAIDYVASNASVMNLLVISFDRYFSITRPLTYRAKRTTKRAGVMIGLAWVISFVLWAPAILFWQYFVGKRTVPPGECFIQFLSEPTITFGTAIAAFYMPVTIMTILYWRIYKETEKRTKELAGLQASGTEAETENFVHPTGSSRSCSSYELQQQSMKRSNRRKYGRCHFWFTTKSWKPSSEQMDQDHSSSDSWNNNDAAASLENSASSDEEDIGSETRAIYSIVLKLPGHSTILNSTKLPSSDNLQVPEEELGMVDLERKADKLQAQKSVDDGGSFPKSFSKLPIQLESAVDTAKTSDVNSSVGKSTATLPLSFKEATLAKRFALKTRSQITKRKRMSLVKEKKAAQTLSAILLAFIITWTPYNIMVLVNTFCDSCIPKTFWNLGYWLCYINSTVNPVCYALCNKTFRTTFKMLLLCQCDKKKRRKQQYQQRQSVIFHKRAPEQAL
# Chain of 5-hydroxytryptamine receptor 2B (P41595 whole entry): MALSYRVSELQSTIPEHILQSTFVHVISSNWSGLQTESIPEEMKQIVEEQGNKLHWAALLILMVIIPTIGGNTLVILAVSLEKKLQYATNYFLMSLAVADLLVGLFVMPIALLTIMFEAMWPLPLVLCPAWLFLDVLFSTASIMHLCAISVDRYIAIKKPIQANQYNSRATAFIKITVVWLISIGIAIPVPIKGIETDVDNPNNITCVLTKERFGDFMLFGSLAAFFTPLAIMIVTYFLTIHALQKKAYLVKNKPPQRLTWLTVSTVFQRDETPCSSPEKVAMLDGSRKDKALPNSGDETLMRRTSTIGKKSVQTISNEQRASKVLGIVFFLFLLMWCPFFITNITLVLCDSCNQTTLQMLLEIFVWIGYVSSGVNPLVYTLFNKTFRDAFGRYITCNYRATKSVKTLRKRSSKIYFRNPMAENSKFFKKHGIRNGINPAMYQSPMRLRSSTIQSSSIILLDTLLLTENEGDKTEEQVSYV
# Chain of Delta-type opioid receptor (P41143 whole entry): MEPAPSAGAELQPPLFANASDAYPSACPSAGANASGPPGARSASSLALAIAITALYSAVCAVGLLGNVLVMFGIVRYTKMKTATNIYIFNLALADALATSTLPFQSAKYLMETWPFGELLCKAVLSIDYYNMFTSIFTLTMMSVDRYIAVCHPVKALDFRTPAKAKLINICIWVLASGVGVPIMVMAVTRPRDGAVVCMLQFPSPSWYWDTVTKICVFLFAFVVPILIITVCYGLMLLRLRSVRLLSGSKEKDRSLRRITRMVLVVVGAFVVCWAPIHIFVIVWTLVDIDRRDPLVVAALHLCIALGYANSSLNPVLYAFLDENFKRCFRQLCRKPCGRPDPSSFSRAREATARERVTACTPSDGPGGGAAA
# Chain of D(1A) dopamine receptor (P21728 whole entry): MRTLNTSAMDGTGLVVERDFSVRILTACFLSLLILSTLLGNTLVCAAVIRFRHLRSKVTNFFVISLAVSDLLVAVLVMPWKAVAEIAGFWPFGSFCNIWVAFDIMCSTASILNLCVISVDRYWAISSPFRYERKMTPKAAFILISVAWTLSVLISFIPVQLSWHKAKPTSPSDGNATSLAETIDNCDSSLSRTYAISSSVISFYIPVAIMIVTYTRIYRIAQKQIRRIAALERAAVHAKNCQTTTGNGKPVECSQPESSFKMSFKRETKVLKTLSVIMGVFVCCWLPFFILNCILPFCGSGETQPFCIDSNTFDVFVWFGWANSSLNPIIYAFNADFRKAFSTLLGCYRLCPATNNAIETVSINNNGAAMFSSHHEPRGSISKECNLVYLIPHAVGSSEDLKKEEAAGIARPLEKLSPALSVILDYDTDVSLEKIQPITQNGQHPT
# Chain of Melanocortin receptor 3 (P41968 whole entry): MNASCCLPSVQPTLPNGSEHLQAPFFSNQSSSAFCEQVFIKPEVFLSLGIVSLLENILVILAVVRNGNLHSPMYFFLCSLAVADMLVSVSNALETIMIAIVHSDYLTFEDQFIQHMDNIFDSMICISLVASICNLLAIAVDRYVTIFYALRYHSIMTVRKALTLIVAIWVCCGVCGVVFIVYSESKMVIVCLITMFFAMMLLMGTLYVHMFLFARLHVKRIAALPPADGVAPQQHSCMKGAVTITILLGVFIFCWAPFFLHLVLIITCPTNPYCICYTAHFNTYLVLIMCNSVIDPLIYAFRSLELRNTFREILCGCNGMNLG
Compound,AC50 [1],AC50 [2],AC50 (Melanocortin receptor 3),AC50 (Thromboxane A2 receptor),AC50 [3],AC50 (D(1A) dopamine receptor),AC50 (Endothelin-1 receptor),AC50 [4],AC50 [5],AC50 [6],AC50 [7],AC50 [8]
Oc1cc(O)c(Cl)cn1,> 30 µM,> 30 µM,> 30 µM,> 30 µM,> 30 µM,> 30 µM,> 30 µM,> 30 µM,> 30 µM,> 30 µM,> 30 µM,> 30 µM
CC(C)N(CCCCOCC(=O)O)c1cnc(-c2ccccc2)c(-c2ccccc2)n1,> 30 µM,> 30 µM,> 30 µM,28 µM,17 µM,7.3 µM,> 30 µM,> 30 µM,> 30 µM,> 30 µM,> 30 µM,> 30 µM
C[N+]12CCC(CC1)C(OC(=O)C(O)(c1ccccc1)c1ccccc1)C2 (configuration not stated),> 30 µM,,> 30 µM,> 30 µM,> 30 µM,> 30 µM,> 30 µM,> 30 µM,> 30 µM,0.0019 µM,> 30 µM,> 30 µM
O=C(CCCN1CCC(O)(c2ccc(Br)cc2)CC1)c1ccc(F)cc1 [BROMPERIDOL],> 30 µM,> 30 µM,> 30 µM,> 30 µM,> 30 µM,> 30 µM,> 30 µM,7.3 µM,,12 µM,> 30 µM,> 30 µM
CO/N=C(\C(=O)N[C@@H]1C(=O)N2C(C(=O)O)=C(CSc3nc(=O)c(=O)[nH]n3C)CS[C@H]12)c1csc(N)n1 [CEFTRIAXONE],> 30 µM,> 30 µM,> 30 µM,,> 30 µM,> 30 µM,> 30 µM,> 30 µM,> 30 µM,> 30 µM,> 30 µM,> 30 µM
O=c1[nH]c2ccccc2n1CCCN1CCN(C(c2ccccc2)c2ccccc2)CC1 [OXATOMIDE],> 30 µM,6.6 µM,> 30 µM,> 30 µM,17 µM,> 30 µM,> 30 µM,,> 30 µM,3.5 µM,> 30 µM,1.7 µM
c1ccc(C2(N3CCCCC3)CCCCC2)cc1 [PHENCYCLIDINE],0.288 µM,> 30 µM,> 30 µM,> 30 µM,> 30 µM,> 30 µM,> 30 µM,> 30 µM,> 30 µM,> 30 µM,> 30 µM,
COc1cc(C(=O)OCc2cccc(COC(=O)c3cc(OC)c(OC)c(OC)c3)n2)cc(OC)c1OC [PIROZADIL],> 30 µM,> 30 µM,> 30 µM,> 30 µM,> 30 µM,> 30 µM,> 30 µM,> 30 µM,> 30 µM,> 30 µM,> 30 µM,
CCc1nc(N)nc(N)c1-c1ccc(Cl)cc1 [PYRIMETHAMINE],> 10 µM,> 10 µM,> 10 µM,> 10 µM,> 10 µM,> 10 µM,,11.3 µM,> 30 µM,> 30 µM,> 30 µM,> 30 µM
O=c1c(O)c(-c2ccc(O)c(O)c2)oc2cc(O)cc(O)c12 [QUERCETIN],,10 µM,> 30 µM,> 30 µM,> 30 µM,> 10 µM,> 30 µM,> 30 µM,> 30 µM,> 30 µM,> 30 µM,> 30 µM
CC1=C(/C=C/C(C)=C/C=C/C(C)=C/CO)C(C)(C)CCC1 [RETINOL],> 10 µM,> 10 µM,> 10 µM,> 10 µM,> 30 µM,> 10 µM,,> 10 µM,> 10 µM,> 30 µM,> 30 µM,> 30 µM
C=CC[N+]1([C@H]2C[C@H]3[C@@H]4CC[C@H]5C[C@H](O)[C@@H](N6CCOCC6)C[C@]5(C)[C@H]4CC[C@]3(C)[C@H]2OC(C)=O)CCCC1 [ROCURONIUM],> 30 µM,> 30 µM,> 30 µM,> 30 µM,1.2 µM,> 30 µM,,> 30 µM,> 30 µM,> 30 µM,> 30 µM,> 30 µM
C=CCN1CCc2nc(N)sc2CC1 [TALIPEXOLE],> 30 µM,> 30 µM,> 30 µM,> 30 µM,> 30 µM,> 30 µM,> 30 µM,> 30 µM,,> 30 µM,> 30 µM,> 30 µM
CCOC(=O)c1ccc(C#Cc2ccc3c(c2)C(C)(C)CCS3)nc1 [TAZAROTENE],> 10 µM,> 10 µM,> 30 µM,> 30 µM,> 30 µM,> 30 µM,,> 10 µM,> 10 µM,> 30 µM,> 30 µM,> 30 µM
CCOC(=O)[C@@H](N)Cc1ccc(-c2cc(O[C@H](c3ccc(Cl)cc3-n3ccc(C)n3)C(F)(F)F)nc(N)n2)cc1 [TELOTRISTAT ETHYL],> 30 µM,> 30 µM,12 µM,,11 µM,> 30 µM,> 30 µM,> 30 µM,> 30 µM,> 30 µM,> 30 µM,> 30 µM
